In US9351981B2, “Use of PKC-iota inhibitors for the treatment of breast cancer” (UNIVERSITY OF SOUTH FLORIDA, priority 2007, dated 2016):

Tests used:
[1] = biological target: T1, PKC-ι (Homo sapiens, UniProt P41743); test: Inhibition of PKC-ι activity; assay type: biochemical
T1 sequence (P41743 10-596 limits assumed): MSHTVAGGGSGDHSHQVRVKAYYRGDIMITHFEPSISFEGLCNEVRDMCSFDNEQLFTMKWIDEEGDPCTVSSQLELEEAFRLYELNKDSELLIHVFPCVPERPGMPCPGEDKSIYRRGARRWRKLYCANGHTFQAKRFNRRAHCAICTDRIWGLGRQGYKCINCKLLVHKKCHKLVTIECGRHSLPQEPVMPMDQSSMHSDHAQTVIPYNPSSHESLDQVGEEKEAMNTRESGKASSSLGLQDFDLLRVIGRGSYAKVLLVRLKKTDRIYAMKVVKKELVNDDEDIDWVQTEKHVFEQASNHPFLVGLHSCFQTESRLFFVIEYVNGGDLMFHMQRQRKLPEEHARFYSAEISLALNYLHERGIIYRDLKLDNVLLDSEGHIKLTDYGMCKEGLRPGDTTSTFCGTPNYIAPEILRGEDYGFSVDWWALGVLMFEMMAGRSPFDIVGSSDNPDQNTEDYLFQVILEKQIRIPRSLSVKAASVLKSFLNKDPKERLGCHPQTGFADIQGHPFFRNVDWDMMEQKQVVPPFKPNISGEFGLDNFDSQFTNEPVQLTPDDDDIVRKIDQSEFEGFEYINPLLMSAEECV

[2] = tested on: IKK-α/IKK-β; test: Phosphorylation of IKK-α/IKK-β; assay type: cell-based
[3] = tested on: MDA-MB-468 breast cancer cells; test: Proliferation of MDA-MB-468 breast cancer cells after ICA-1, viable cell count by Trypan blue exclusion; assay type: cell-based, human; conditions: vs vehicle control
Procedure: Five thousand cells were plated in T-25 cm^2 flasks. Twenty-four hours post vehicle control or ICA-1 treatment, the number of viable cells was counted by Trypan blue exclusion. Data shown are the mean+/−SD of two independent experiments.
Briefly, MDA-MB-468 breast cancer cells were treated with 0.1 μM or 0.5 μM ICA-1. Cell viability and cell count were determined 24 hours following addition of either vehicle control or ICA-1.

[4] = tested on: cancer cells; test: DNA fragmentation, TUNEL assay; assay type: cell-based
Text: (§1) In addition, the present inventors have discovered that ICA-1 promotes apoptosis of cancer cells.

[5] = tested on: cancer cells; test: Chromatin condensation, DAPI staining of the nucleus; assay type: cell-based
Text: as §1

activity of PKC-ι [1]: potently inhibits
SMILES: NC(=O)c1ncn(C2CC(COP(=O)(O)O)C(O)C2O)c1N (stereo not drawn) [ICA-1, 1H-imidazole-4-carboxamide,5-amino-1-[2,3-dihydroxy-4-[(phosphonooxy)methyl]cyclopentyl]-,[1R-(1α, 2β, 3β, 4α)]]
phosphorylation of IKK-α/IKK-β [2]: inhibits the phosphorylation
decrease of proliferation of MDA-MB-468 cells ([3]; 0.1 μM ICA-1, 24 hours post-treatment): 77%
decrease of proliferation of MDA-MB-468 cells ([3]; 0.5 μM ICA-1, 24 hours post-treatment, P=0.05): 50%
DNA fragmentation in cancer cells [4]: induced DNA fragmentation
chromatin condensation in cancer cells [5]: induced chromatin condensation
